Among the test systems are MALME-3M melanoma; K-562 leukemia; HT29 colon; SK-MEL-2 melanoma; CCRF-CEM leukemia; SF-295 CNS; OVCAR-8 ovarian; OVCAR-5 ovarian; RPMI-8226 leukemia; NCI-H23 lung.
Common to all, as to assay: NCI-60 cell line screen, 48 h

SMILES strings stand for the structures.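 Grown in 96-well plates, cells were treated for 48 hours with each compound at five concentrations. Insufficient inhibition: endpoint recorded as highest concentration tested. GI50 marks 50% less growth. TGI: concentration producing complete growth inhibition.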

In the case of `O=C1CNC(=O)N1`, the TGI was more than 1120 µM with MALME-3M melanoma; more than 630 µM in the experiment on K-562 leukemia; more than 1120 µM in the experiment on HT29 colon; more than 1120 µM in the experiment with SK-MEL-2 melanoma; more than 954 µM with CCRF-CEM leukemia; more than 1120 µM in the experiment on SF-295 CNS. Moreover, the TGI in the experiment on OVCAR-8 ovarian, in the experiment with OVCAR-5 ovarian, with RPMI-8226 leukemia and in the experiment with NCI-H23 lung was more than 1120 µM in each case.

Turning to `COc1cc(CN(C)N2C(=O)c3cccc4cc([N+](=O)[O-])cc(c34)C2=O)cc(OC)c1OC`, the TGI with MALME-3M melanoma, in the experiment on K-562 leukemia, in the experiment on HT29 colon, in the experiment with SK-MEL-2 melanoma, in the experiment with CCRF-CEM leukemia and in the experiment on SF-295 CNS was more than 100 µM in each case. Besides, the TGI in the experiment on OVCAR-8 ovarian, with OVCAR-5 ovarian, in the experiment with RPMI-8226 leukemia and in the experiment on NCI-H23 lung was more than 100 µM in each case.

Take `CC1(C)CCCC2(C)[C@@H]1CC[C@]13C[C@](C)(CC[C@@H]21)[C@@H]3CO` (stereo partly drawn): the TGI in the experiment on MALME-3M melanoma, with K-562 leukemia, with HT29 colon, with CCRF-CEM leukemia, in the experiment with SF-295 CNS and in the experiment on OVCAR-5 ovarian was more than 100 µM throughout. The TGI in the experiment with RPMI-8226 leukemia and with NCI-H23 lung was more than 100 µM in each case.

Regarding `Cc1ccc(NCCO)cc1`, the TGI in the experiment on MALME-3M melanoma, with K-562 leukemia, in the experiment with HT29 colon, in the experiment with SK-MEL-2 melanoma, in the experiment on CCRF-CEM leukemia and in the experiment with SF-295 CNS was more than 100 µM in each case. Moreover, the TGI in the experiment on OVCAR-8 ovarian, in the experiment on OVCAR-5 ovarian, in the experiment with RPMI-8226 leukemia and with NCI-H23 lung was more than 100 µM each time.

Turning to `O=C(NC/C=C/CO)c1ccccc1`, the TGI with MALME-3M melanoma, in the experiment with K-562 leukemia, in the experiment on HT29 colon, with SK-MEL-2 melanoma, in the experiment with CCRF-CEM leukemia and in the experiment with SF-295 CNS was more than 100 µM each time. For the same molecule, the TGI with OVCAR-8 ovarian, with OVCAR-5 ovarian, in the experiment with RPMI-8226 leukemia and in the experiment with NCI-H23 lung was more than 100 µM each time.

For the molecule `Fc1cc(C2=Nn3c(nnc3-c3cc(F)c(Cl)cc3Cl)SC2)c(Cl)cc1Cl`, the GI50 is 28.4 µM in the experiment on MALME-3M melanoma; 17.8 µM in the experiment with K-562 leukemia; 20.1 µM in the experiment on HT29 colon; 65.3 µM with SK-MEL-2 melanoma; 22 µM in the experiment with CCRF-CEM leukemia; 20.3 µM in the experiment with SF-295 CNS. Moreover, the GI50 in the experiment with OVCAR-8 ovarian was 26 µM; in the experiment with OVCAR-5 ovarian, 56.8 µM; in the experiment with RPMI-8226 leukemia, 6 µM; with NCI-H23 lung it was 21.8 µM. Moreover, the TGI was 66.7 µM in the experiment with MALME-3M melanoma; more than 100 µM with K-562 leukemia; 56.3 µM with HT29 colon; more than 100 µM in the experiment with SK-MEL-2 melanoma; more than 100 µM in the experiment with CCRF-CEM leukemia; 51.9 µM in the experiment with SF-295 CNS. Also, the TGI with OVCAR-8 ovarian was 97.3 µM; in the experiment on OVCAR-5 ovarian, more than 100 µM; in the experiment with RPMI-8226 leukemia, 35 µM; in the experiment with NCI-H23 lung it was more than 100 µM.

`COc1ccc(-c2nnc3c4ccccc4sn23)cc1`: the TGI in the experiment with K-562 leukemia is more than 100 µM; in the experiment on HT29 colon, more than 100 µM; with SK-MEL-2 melanoma, more than 100 µM; with CCRF-CEM leukemia, 33.7 µM; with OVCAR-8 ovarian it was more than 100 µM; in the experiment with OVCAR-5 ovarian, more than 100 µM. The TGI with RPMI-8226 leukemia and in the experiment with NCI-H23 lung was more than 100 µM each time.

In the case of `O=c1n(Cc2ccccc2)c2ccccc2n1CC1CS1` (stereo not drawn), the TGI in the experiment on MALME-3M melanoma, in the experiment on K-562 leukemia, in the experiment with SK-MEL-2 melanoma, in the experiment on CCRF-CEM leukemia, with SF-295 CNS and with OVCAR-8 ovarian was more than 100 µM throughout. Also, the TGI in the experiment on OVCAR-5 ovarian and with RPMI-8226 leukemia was more than 100 µM in each case.

Regarding `Cc1cc(C)c(S(=O)(=O)N(CCCCCCN)OCCCON(CCCCCCN)S(=O)(=O)c2c(C)cc(C)cc2C)c(C)c1`, the TGI is 3.66 µM in the experiment on MALME-3M melanoma; more than 100 µM with K-562 leukemia; 3.05 µM in the experiment on HT29 colon; 3.48 µM with SK-MEL-2 melanoma; more than 100 µM in the experiment on CCRF-CEM leukemia; 3.41 µM in the experiment on SF-295 CNS. The TGI came out at 3.34 µM in the experiment on OVCAR-8 ovarian, 2.72 µM in the experiment on OVCAR-5 ovarian and 3.11 µM in the experiment with NCI-H23 lung.

`COc1ccc2c(c1)C(=O)/C(=C/c1ccccc1)C2`: the TGI in the experiment with MALME-3M melanoma, in the experiment on K-562 leukemia, in the experiment with HT29 colon, in the experiment with SK-MEL-2 melanoma, in the experiment with CCRF-CEM leukemia and in the experiment with SF-295 CNS was more than 100 µM in each case. In addition, the TGI with OVCAR-8 ovarian, in the experiment with OVCAR-5 ovarian, in the experiment with RPMI-8226 leukemia and in the experiment with NCI-H23 lung was more than 100 µM each time.

With `CC12CCC3C(CCC4(O)C=CCCC34C=O)C1(O)CC(O)C2c1ccc(=O)oc1` (stereo not drawn), the TGI in the experiment with MALME-3M melanoma was 0.0877 µM; with K-562 leukemia, 1.29 µM; with HT29 colon it was 1.71 µM; in the experiment with SK-MEL-2 melanoma, 0.295 µM; in the experiment with CCRF-CEM leukemia, 10.1 µM; in the experiment on SF-295 CNS, 0.149 µM. The TGI in the experiment on OVCAR-8 ovarian came to 0.193 µM; in the experiment on OVCAR-5 ovarian, 0.638 µM; with RPMI-8226 leukemia it was 0.839 µM; in the experiment on NCI-H23 lung it was 0.12 µM.

Regarding `CCNc1nc2c(=O)n(C)c(=O)n(C)c2s1`, the TGI with MALME-3M melanoma, in the experiment on K-562 leukemia, with HT29 colon, in the experiment with SK-MEL-2 melanoma, in the experiment with CCRF-CEM leukemia and in the experiment with SF-295 CNS was more than 100 µM throughout. The TGI in the experiment with OVCAR-8 ovarian, in the experiment on OVCAR-5 ovarian, with RPMI-8226 leukemia and in the experiment on NCI-H23 lung was more than 100 µM each time.

With `ClCc1nnc2n1-c1ccc(Cl)cc1SC2`, the TGI with MALME-3M melanoma is 15.8 µM; in the experiment with K-562 leukemia it was more than 100 µM; with HT29 colon it was 10.2 µM; in the experiment on SK-MEL-2 melanoma, 9.22 µM; with CCRF-CEM leukemia, 8.42 µM; with SF-295 CNS, 15.5 µM. Besides, the TGI with OVCAR-8 ovarian is more than 39.5 µM; with OVCAR-5 ovarian, 24.6 µM; in the experiment with RPMI-8226 leukemia, more than 100 µM; in the experiment with NCI-H23 lung, 8.2 µM.

The values are drawn from PubChem BioAssay (NCI).
